The values below come from PMC3914206.

What all share (assay type): binding
What all share (settings): Compound Concentration 10 µM

In experiment [1] the target is T1, panel of 442 kinases (Homo sapiens, UniProt Q8NG66).
T1 construct: purchased KINOMEscan
T1 sequence (Q8NG66 1-645): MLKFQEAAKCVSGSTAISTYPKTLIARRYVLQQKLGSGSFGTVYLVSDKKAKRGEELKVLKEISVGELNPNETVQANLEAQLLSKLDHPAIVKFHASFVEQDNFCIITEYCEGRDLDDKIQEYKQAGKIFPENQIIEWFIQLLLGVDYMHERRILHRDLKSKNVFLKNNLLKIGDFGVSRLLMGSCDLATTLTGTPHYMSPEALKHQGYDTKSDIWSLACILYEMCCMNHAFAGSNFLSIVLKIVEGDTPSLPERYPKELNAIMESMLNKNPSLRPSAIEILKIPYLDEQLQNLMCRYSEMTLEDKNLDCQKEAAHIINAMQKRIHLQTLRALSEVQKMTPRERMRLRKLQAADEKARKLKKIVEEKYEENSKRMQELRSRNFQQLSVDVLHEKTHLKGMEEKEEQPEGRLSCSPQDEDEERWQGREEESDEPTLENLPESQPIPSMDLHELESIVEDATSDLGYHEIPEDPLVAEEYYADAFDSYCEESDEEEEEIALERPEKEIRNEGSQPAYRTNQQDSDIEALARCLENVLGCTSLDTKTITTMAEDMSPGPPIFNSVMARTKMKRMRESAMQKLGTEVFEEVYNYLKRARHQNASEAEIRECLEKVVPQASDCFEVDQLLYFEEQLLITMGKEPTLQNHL
The source says: (§1) We assessed the selectivity of members of this scaffold using the KINOMEscan methodology across a near comprehensive panel of 442 kinases [[18,27]].

Experiment [2] has as its target T2, panel of 442 kinases (Homo sapiens, UniProt P42336, C420R).
T2 construct: purchased KINOMEscan
Description: as §1

The target in experiment [3] is T3, panel of 442 kinases (Homo sapiens, UniProt P29376).
T3 construct: purchased KINOMEscan
T3 sequence (P29376 17-864): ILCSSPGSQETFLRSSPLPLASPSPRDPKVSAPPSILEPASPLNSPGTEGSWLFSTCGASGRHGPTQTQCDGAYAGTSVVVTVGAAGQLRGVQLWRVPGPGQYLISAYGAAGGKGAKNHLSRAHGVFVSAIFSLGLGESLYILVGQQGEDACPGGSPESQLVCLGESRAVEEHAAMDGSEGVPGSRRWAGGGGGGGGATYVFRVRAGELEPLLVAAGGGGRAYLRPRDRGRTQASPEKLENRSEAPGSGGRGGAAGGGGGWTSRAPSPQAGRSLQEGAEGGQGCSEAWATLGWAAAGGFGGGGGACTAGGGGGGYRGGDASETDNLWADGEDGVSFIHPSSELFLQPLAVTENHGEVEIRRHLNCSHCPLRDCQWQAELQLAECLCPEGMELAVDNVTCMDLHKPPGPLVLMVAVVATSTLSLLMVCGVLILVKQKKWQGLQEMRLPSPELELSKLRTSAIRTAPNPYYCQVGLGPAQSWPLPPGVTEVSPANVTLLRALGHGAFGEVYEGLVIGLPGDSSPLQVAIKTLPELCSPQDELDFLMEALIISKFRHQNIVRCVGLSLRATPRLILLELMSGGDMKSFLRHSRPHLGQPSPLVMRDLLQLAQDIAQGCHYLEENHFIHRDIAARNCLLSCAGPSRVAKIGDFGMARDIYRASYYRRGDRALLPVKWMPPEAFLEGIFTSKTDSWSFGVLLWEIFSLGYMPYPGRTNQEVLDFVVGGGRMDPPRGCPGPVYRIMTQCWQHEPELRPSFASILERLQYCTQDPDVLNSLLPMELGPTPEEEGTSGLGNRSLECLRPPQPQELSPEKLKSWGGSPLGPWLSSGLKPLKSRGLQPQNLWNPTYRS
Description: as §1

T2 sequence (P42336 whole entry C420R): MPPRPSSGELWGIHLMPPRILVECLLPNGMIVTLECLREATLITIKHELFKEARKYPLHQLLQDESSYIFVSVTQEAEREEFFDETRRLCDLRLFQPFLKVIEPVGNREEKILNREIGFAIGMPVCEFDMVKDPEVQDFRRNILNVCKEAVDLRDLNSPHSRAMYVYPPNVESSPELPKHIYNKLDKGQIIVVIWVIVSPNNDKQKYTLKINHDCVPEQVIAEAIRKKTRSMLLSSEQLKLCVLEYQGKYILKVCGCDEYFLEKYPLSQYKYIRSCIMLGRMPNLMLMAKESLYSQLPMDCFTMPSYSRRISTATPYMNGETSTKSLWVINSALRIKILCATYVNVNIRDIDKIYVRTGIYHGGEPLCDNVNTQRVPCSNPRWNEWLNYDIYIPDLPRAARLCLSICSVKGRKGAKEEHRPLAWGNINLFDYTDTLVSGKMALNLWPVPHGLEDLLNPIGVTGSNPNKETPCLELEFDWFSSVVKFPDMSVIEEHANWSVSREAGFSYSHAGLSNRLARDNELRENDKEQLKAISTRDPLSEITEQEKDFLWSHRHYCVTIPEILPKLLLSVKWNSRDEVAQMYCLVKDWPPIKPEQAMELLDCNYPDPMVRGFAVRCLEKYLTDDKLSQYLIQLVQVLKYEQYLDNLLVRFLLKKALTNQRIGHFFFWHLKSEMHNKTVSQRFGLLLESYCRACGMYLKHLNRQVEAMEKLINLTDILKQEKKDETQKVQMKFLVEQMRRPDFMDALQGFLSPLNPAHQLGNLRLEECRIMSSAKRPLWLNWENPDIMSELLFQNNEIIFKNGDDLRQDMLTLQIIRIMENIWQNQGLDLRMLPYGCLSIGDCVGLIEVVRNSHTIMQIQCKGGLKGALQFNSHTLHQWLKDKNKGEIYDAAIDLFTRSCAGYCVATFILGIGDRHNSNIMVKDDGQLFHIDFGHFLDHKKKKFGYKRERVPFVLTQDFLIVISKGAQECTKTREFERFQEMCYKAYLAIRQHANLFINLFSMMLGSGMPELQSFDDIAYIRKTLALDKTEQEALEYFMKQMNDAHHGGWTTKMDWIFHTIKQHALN

Take `CCOc1cc(C(=O)N2CCC(N3CCN(C)CC3)CC2)ccc1Nc1ncc2c(n1)N(C1CCCC1)c1ccccc1C(=O)N2C` [Compound 26]: the “KINOMEscan: NEK11” value in experiment [1] came to 100. In addition, in experiment [2], the “KINOMEscan: PIK3CA(C420R)” value is given as 99. In addition, the “KINOMEscan: LTK” value in experiment [3] is on record as 48.

Take `COc1cc(C(=O)N2CCC(N3CCN(C)CC3)CC2)ccc1Nc1ncc2c(n1)N(C)c1ccccc1C(=O)N2C` [15 (LRRK2-IN-1)]: the “KINOMEscan: NEK11” value in experiment [1] was found to be 100. Also, the “KINOMEscan: PIK3CA(C420R)” value in experiment [2] was determined as 89. In addition, the “KINOMEscan: LTK” value in experiment [3] came out at 32.

As for `COc1cc(C(=O)N2CCC(N3CCN(C)CC3)CC2)ccc1Nc1ncc2c(n1)N(C1CCCC1)c1ccccc1C(=O)N2C` [Compound 25, 11-cyclopentyl-2-((2-methoxy-4-(4-(4-methylpiperazin-1-yl)piperidine-1-carbonyl)phenyl)amino)-5-methyl-5H-benzo[e]pyrimido[5,4-b][1,4]diazepin-6(11H)-one], the “KINOMEscan: NEK11” value in experiment [1] is 100. The “KINOMEscan: PIK3CA(C420R)” value in experiment [2] was found to be 100. In experiment [3], the “KINOMEscan: LTK” value worked out at 11.
